Source: patent US20230348442A1, “GALECTIN-3 INHIBITING 2-HYDROXYCYCLOALKANE-1-CARBAMOYL DERIVATIVES” (Idorsia Pharmaceuticals Ltd, priority 2020, published 2023)

Target: human Gal-3 (hGal-3) (Homo sapiens (Human), UniProt P17931)
Test: competitive binding assay: binding of biotinylated hGal-3 to microplate-adsorbed asialofetuin (ASF), spectrophotometric
Settings: Activity on hGal-3; mean values of several measurements
In short: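 Biotin-hGal-3/hGal-1 300-1000 ng/mL + cpd (DMSO dilutions) on ASF-coated plate, 3 h 4° C; wash; SA-HRP 80 ng/mL 1 h 4° C; wash; ABTS. IC50 = mean of several runs. hGal-1 preferably Cys→Ser (all six) mutant.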

Sequence of human Gal-3 (hGal-3) (P17931 whole entry): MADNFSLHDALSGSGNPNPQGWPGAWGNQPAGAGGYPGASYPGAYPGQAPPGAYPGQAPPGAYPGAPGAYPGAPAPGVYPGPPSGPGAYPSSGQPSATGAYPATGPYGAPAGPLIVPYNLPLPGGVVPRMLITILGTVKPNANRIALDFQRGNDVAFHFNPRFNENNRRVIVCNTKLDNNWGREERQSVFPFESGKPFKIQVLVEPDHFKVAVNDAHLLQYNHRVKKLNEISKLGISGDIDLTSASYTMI

Structure (SMILES)	IC50
CO[C@@H]1[C@@H](n2cc(-c3cc(F)c(C)c(F)c3)nn2)[C@@H](O)[C@@H](CO)O[C@H]1C(=O)N(c1cc(Cl)cc(Cl)c1)[C@H]1CC[C@@H]1O [Example 2.4.2, (2R,3R,4S,5R,6R)-N-(3,5-dichlorophenyl)-4-(4-(3,5-difluoro-4-methylphenyl)-1H-1,2,3-triazol-1-yl)-5-hydroxy-N-((1S,2S)-2-hydroxycyclobutyl)-6-(hydroxymethyl)-3-methoxytetrahydro-2H-pyran-2-carboxamide]	0.038 µM
CO[C@@H]1[C@@H](n2cc(-c3cc(F)c(Br)c(F)c3)nn2)[C@@H](O)[C@@H](CO)O[C@H]1C(=O)N(c1cc(Br)cc(C#N)c1)[C@H]1CC[C@@H]1O [Example 2.6.5, (2R,3R,4S,5R,6R)-4-(4-(4-bromo-3,5-difluorophenyl)-1H-1,2,3-triazol-1-yl)-N-(3-bromo-5-cyanophenyl)-5-hydroxy-N-((1S,2S)-2-hydroxycyclobutyl)-6-(hydroxymethyl)-3-methoxytetrahydro-2H-pyran-2-carboxamide]	0.0709 µM
CO[C@@H]1[C@@H](n2cc(-c3cc(F)c(Br)c(F)c3)nn2)[C@@H](O)[C@@H](CO)O[C@H]1C(=O)N(c1cc(Cl)cc(C#N)c1)[C@H]1CCC[C@@H]1O [Example 1.6.4, (2R,3R,4S,5R,6R)-4-(4-(4-bromo-3,5-difluorophenyl)-1H-1,2,3-triazol-1-yl)-N-(3-chloro-5-cyanophenyl)-5-hydroxy-N-((1S,2S)-2-hydroxycyclopentyl)-6-(hydroxymethyl)-3-methoxytetrahydro-2H-pyran-2-carboxamide]	0.0286 µM
CO[C@@H]1[C@@H](n2cc(-c3ccc(Br)c(F)c3F)nn2)[C@@H](O)[C@@H](CO)O[C@H]1C(=O)N(c1cc(Br)cc(C#N)c1)[C@@H]1CC[C@H]1O [Example 2.12.5R, (2R,3R,4S,5R,6R)-4-(4-(4-bromo-2,3-difluorophenyl)-1H-1,2,3-triazol-1-yl)-N-(3-bromo-5-cyanophenyl)-5-hydroxy-N-((1R,2R)-2-hydroxycyclobutyl)-6-(hydroxymethyl)-3-methoxytetrahydro-2H-pyran-2-carboxamide]	0.0785 µM
O=C([C@@H]1O[C@H](CO)[C@H](O)[C@H](n2cc(-c3cc(F)c(Cl)c(F)c3)nn2)[C@H]1O)N(c1cc(Cl)cc(Cl)c1)[C@H]1CCC[C@@H]1O [Example 1H.5.2, (2R,3R,4S,5R,6R)-4-(4-(4-chloro-3,5-difluorophenyl)-1H-1,2,3-triazol-1-yl)-N-(3,5-dichlorophenyl)-3,5-dihydroxy-N-((1S,2S)-2-hydroxycyclopentyl)-6-(hydroxymethyl)tetrahydro-2H-pyran-2-carboxamide]	0.0143 µM
N#Cc1cc(Cl)cc(N(C(=O)[C@@H]2O[C@H](CO)[C@H](O)[C@H](n3cc(-c4cc(F)c(F)c(F)c4)nn3)[C@H]2O)[C@H]2CCC[C@@H]2O)c1 [Example 1H.1.4, (2R,3R,4S,5R,6R)-N-(3-chloro-5-cyanophenyl)-3,5-dihydroxy-N-((1S,2S)-2-hydroxycyclopentyl)-6-(hydroxymethyl)-4-(4-(3,4,5-trifluorophenyl)-1H-1,2,3-triazol-1-yl)tetrahydro-2H-pyran-2-carboxamide]	0.0289 µM
COc1cc(-c2cn([C@H]3[C@@H](O)[C@@H](CO)O[C@@H](C(=O)N(c4cc(C)cc(Br)c4)[C@H]4CC[C@@H]4O)[C@@H]3OC)nn2)cc(F)c1F [Example 2.3.12, (2R,3R,4S,5R,6R)-N-(3-bromo-5-methylphenyl)-4-(4-(3,4-difluoro-5-methoxyphenyl)-1H-1,2,3-triazol-1-yl)-5-hydroxy-N-((1S,2S)-2-hydroxycyclobutyl)-6-(hydroxymethyl)-3-methoxytetrahydro-2H-pyran-2-carboxamide]	0.116 µM
COc1cc(C#N)cc(N(C(=O)[C@@H]2O[C@H](CO)[C@H](O)[C@H](n3cc(-c4cc(F)cc(Br)c4)nn3)[C@H]2OC)[C@@H]2CCC[C@H]2O)c1 [Example 1.10.9R, (2R,3R,4S,5R,6R)-4-(4-(3-bromo-5-fluorophenyl)-1H-1,2,3-triazol-1-yl)-N-(3-cyano-5-methoxyphenyl)-5-hydroxy-N-((1R,2R)-2-hydroxycyclopentyl)-6-(hydroxymethyl)-3-methoxytetrahydro-2H-pyran-2-carboxamide]	1.2 µM
CO[C@@H]1[C@@H](n2cc(-c3cc(F)c(Br)c(F)c3)nn2)[C@@H](O)[C@@H](CO)O[C@H]1C(=O)N(c1cc(Cl)cc(C#N)c1)[C@@H]1CC[C@H]1O [Example 2.6.4R, (2R,3R,4S,5R,6R)-4-(4-(4-bromo-3,5-difluorophenyl)-1H-1,2,3-triazol-1-yl)-N-(3-chloro-5-cyanophenyl)-5-hydroxy-N-((1R,2R)-2-hydroxycyclobutyl)-6-(hydroxymethyl)-3-methoxytetrahydro-2H-pyran-2-carboxamide]	0.174 µM
CO[C@@H]1[C@@H](n2cc(-c3cc(F)c(F)c(F)c3)nn2)[C@@H](O)[C@@H](CO)O[C@H]1C(=O)N(c1cc(C)cc(Cl)c1)[C@H]1CCC[C@@H]1O [Example 1.1.3, (2R,3R,4S,5R,6R)-N-(3-chloro-5-methylphenyl)-5-hydroxy-N-((1S,2S)-2-hydroxycyclopentyl)-6-(hydroxymethyl)-3-methoxy-4-(4-(3,4,5-trifluorophenyl)-1H-1,2,3-triazol-1-yl)tetrahydro-2H-pyran-2-carboxamide]	0.0348 µM
CO[C@@H]1[C@@H](n2cc(-c3cc(F)c(C)c(F)c3)nn2)[C@@H](O)[C@@H](CO)O[C@H]1C(=O)N(c1cc(Br)cc(C#N)c1)[C@H]1CCC[C@@H]1O [Example 1.4.5, (2R,3R,4S,5R,6R)-N-(3-bromo-5-cyanophenyl)-4-(4-(3,5-difluoro-4-methylphenyl)-1H-1,2,3-triazol-1-yl)-5-hydroxy-N-((1S,2S)-2-hydroxycyclopentyl)-6-(hydroxymethyl)-3-methoxytetrahydro-2H-pyran-2-carboxamide]	0.0169 µM
CO[C@@H]1[C@@H](n2cc(-c3cccc(F)c3)nn2)[C@@H](O)[C@@H](CO)O[C@H]1C(=O)N(c1cc(Br)cc(C#N)c1)[C@@H]1CCC[C@H]1O [Example 1.15.5R, (2R,3R,4S,5R,6R)-N-(3-bromo-5-cyanophenyl)-4-(4-(3-fluorophenyl)-1H-1,2,3-triazol-1-yl)-5-hydroxy-N-((1R,2R)-2-hydroxycyclopentyl)-6-(hydroxymethyl)-3-methoxytetrahydro-2H-pyran-2-carboxamide]	0.612 µM
CO[C@@H]1[C@@H](n2cc(-c3cc(F)c(F)c(F)c3)nn2)[C@@H](O)[C@@H](CO)O[C@H]1C(=O)N(c1cc(C)cc(Cl)c1)[C@@H]1CC[C@H]1O [Example 2.1.3R, (2R,3R,4S,5R,6R)-N-(3-chloro-5-methylphenyl)-5-hydroxy-N-((1R,2R)-2-hydroxycyclobutyl)-6-(hydroxymethyl)-3-methoxy-4-(4-(3,4,5-trifluorophenyl)-1H-1,2,3-triazol-1-yl)tetrahydro-2H-pyran-2-carboxamide]	0.258 µM
CO[C@@H]1[C@@H](n2cc(-c3ccc(Br)c(F)c3F)nn2)[C@@H](O)[C@@H](CO)O[C@H]1C(=O)N(c1cc(Cl)cc(C#N)c1)[C@@H]1CC[C@H]1O [Example 2.12.4R, (2R,3R,4S,5R,6R)-4-(4-(4-bromo-2,3-difluorophenyl)-1H-1,2,3-triazol-1-yl)-N-(3-chloro-5-cyanophenyl)-5-hydroxy-N-((1R,2R)-2-hydroxycyclobutyl)-6-(hydroxymethyl)-3-methoxytetrahydro-2H-pyran-2-carboxamide]	0.135 µM
CO[C@@H]1[C@@H](n2cc(-c3cc(F)c(F)c(F)c3)nn2)[C@@H](O)[C@@H](CO)O[C@H]1C(=O)N(c1cc(Cl)cc(Cl)c1)[C@H]1CCC[C@@H]1O [Example 1.1.2, (2R,3R,4S,5R,6R)-N-(3,5-dichlorophenyl)-5-hydroxy-N-((1S,2S)-2-hydroxycyclopentyl)-6-(hydroxymethyl)-3-methoxy-4-(4-(3,4,5-trifluorophenyl)-1H-1,2,3-triazol-1-yl)tetrahydro-2H-pyran-2-carboxamide]	0.0374 µM
CO[C@@H]1[C@@H](n2cc(-c3ccc(C)c(F)c3)nn2)[C@@H](O)[C@@H](CO)O[C@H]1C(=O)N(c1cc(C)cc(C#N)c1)[C@H]1CCC[C@@H]1O [Example 1.13.8, (2R,3R,4S,5R,6R)-N-(3-cyano-5-methylphenyl)-4-(4-(3-fluoro-4-methylphenyl)-1H-1,2,3-triazol-1-yl)-5-hydroxy-N-((1S,2S)-2-hydroxycyclopentyl)-6-(hydroxymethyl)-3-methoxytetrahydro-2H-pyran-2-carboxamide]	0.0332 µM
CO[C@@H]1[C@@H](n2cc(-c3ccc(C)c(F)c3F)nn2)[C@@H](O)[C@@H](CO)O[C@H]1C(=O)N(c1cc(Br)cc(C#N)c1)[C@H]1CC[C@@H]1O [Example 2.11.5, (2R,3R,4S,5R,6R)-N-(3-bromo-5-cyanophenyl)-4-(4-(2,3-difluoro-4-methylphenyl)-1H-1,2,3-triazol-1-yl)-5-hydroxy-N-((1S,2S)-2-hydroxycyclobutyl)-6-(hydroxymethyl)-3-methoxytetrahydro-2H-pyran-2-carboxamide]	0.0171 µM
CO[C@@H]1[C@@H](n2cc(-c3cc(F)c(F)c(F)c3)nn2)[C@@H](O)[C@@H](CO)O[C@H]1C(=O)N(c1cc(Br)cc(C#N)c1)[C@@H]1CC[C@H]1O [Example 2.1.5R, (2R,3R,4S,5R,6R)-N-(3-bromo-5-cyanophenyl)-5-hydroxy-N-((1R,2R)-2-hydroxycyclobutyl)-6-(hydroxymethyl)-3-methoxy-4-(4-(3,4,5-trifluorophenyl)-1H-1,2,3-triazol-1-yl)tetrahydro-2H-pyran-2-carboxamide]	0.191 µM
CO[C@@H]1[C@@H](n2cc(-c3cc(F)c(F)c(F)c3)nn2)[C@@H](O)[C@@H](CO)O[C@H]1C(=O)N(c1cccc(I)c1)[C@@H]1CCC[C@H]1O [Example 1.1.6R, (2R,3R,4S,5R,6R)-5-hydroxy-N-((1R,2R)-2-hydroxycyclopentyl)-6-(hydroxymethyl)-N-(3-iodophenyl)-3-methoxy-4-(4-(3,4,5-trifluorophenyl)-1H-1,2,3-triazol-1-yl)tetrahydro-2H-pyran-2-carboxamide]	0.261 µM
